Reference: the supplement of paper PMC11061612

Key:
Assay in all cases: combination Emax (second highest fraction inhibited in the dose matrix, 72 h); higher = more inhibition; extreme values may be limits of the assay
[1] = test system: 23132-87 (Gastric Carcinoma)
Outline: (§1)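 Cell lines grown in DMEM/F12 or RPMI with 10% FBS were plated in 1536-well plates and held 24 hours at 37°C, 5% CO2 before 72 hours of exposure to two-drug dose matrices, with DMSO typically at 0.2%. CellTiter-Glo 2.0 luminescence gave viability, which was converted to inhibition. Vehicle wells were set to 0 and blank wells to 1. Combination Emax is the second-highest inhibition in the matrix, and Bliss excess is the observed combination effect minus the expected EA + EB − EA·EB, where EA and EB are the single-agent effects.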

[2] = test system: FADU (Head and Neck Carcinoma)
Outline: as §1

GB-1 (Glioblastoma) = test system: GB-1 (Glioblastoma)
Outline: as §1

[3] = test system: HCT-15 (Colorectal Carcinoma)
Outline: as §1

[4] = test system: HEC-1 (Endometrial Carcinoma)
Outline: as §1

IST-MES1 (Mesothelioma) = test system: IST-MES1 (Mesothelioma)
Outline: as §1

[5] = test system: L-1236 (Hodgkin's Lymphoma)
Outline: as §1

[6] = test system: LK-2 (Squamous Cell Lung Carcinoma)
Outline: as §1

LN-229 (Glioblastoma) = test system: LN-229 (Glioblastoma)
Outline: as §1

[7] = test system: LXF-289 (Lung Adenocarcinoma)
Outline: as §1

[8] = test system: NCI-H23 (Lung Adenocarcinoma)
Outline: as §1

[9] = test system: OAW-42 (Ovarian Carcinoma)
Outline: as §1

[10] = test system: OPM-2 (Plasma Cell Myeloma)
Outline: as §1

[11] = test system: RKN (Other Solid Carcinomas)
Outline: as §1

SF539 (Glioblastoma) = test system: SF539 (Glioblastoma)
Outline: as §1

[12] = test system: SHP-77 (Small Cell Lung Carcinoma)
Outline: as §1

[13] = test system: SK-PN-DW (Other Solid Carcinomas)
Outline: as §1

[14] = test system: SU-DHL-10 (B-Cell Non-Hodgkin's Lymphoma)
Outline: as §1

[15] = test system: TE-8 (Esophageal Squamous Cell Carcinoma)
Outline: as §1

WM278 (Melanoma) = test system: WM278 (Melanoma)
Outline: as §1

SMILES	combination Emax [1]	combination Emax [2]	combination Emax (GB-1 (Glioblastoma))	combination Emax [3]	combination Emax [4]	combination Emax (IST-MES1 (Mesothelioma))	combination Emax [5]	combination Emax [6]	combination Emax (LN-229 (Glioblastoma))	combination Emax [7]	combination Emax [8]	combination Emax [9]	combination Emax [10]	combination Emax [11]	combination Emax (SF539 (Glioblastoma))	combination Emax [12]	combination Emax [13]	combination Emax [14]	combination Emax [15]	combination Emax (WM278 (Melanoma))
COc1nnc2ccc(N3CCC(c4ccc(OCCN5CCN(C)C(=O)[C@H]5C)cc4)CC3)nn12 [AZD5153] + Cn1cnc2c(F)c(Nc3ccc(Br)cc3Cl)c(C(=O)NOCCO)cc21 [Selumetinib] (first compound max 1 µM, 7x7, partner max 10 µM)	0.2	0.629	0.288	0.819	0.595	0.641	1	0.6	0.511	0.646	0.852	0.426	1	0.577	0.653	0.424	0.559	1	0.575	0.799
NC1(C(=O)N[C@@H](CCO)c2ccc(Cl)cc2)CCN(c2ncnc3[nH]ccc23)CC1 [Capivasertib] + C[C@@H]1COCCN1C2=NC(=NC(=C2)C3(CC3)[S@](=N)(=O)C)C4=C5C=CNC5=NC=C4 [AZD6738] (first compound max 10 µM, 7x7, partner max 10 µM)	0.616	0.594	0.563	0.738	0.347	0.522	0.818	0.675	0.597	0.778	0.87	0.644	1	0.272	0.879	0.424	0.925	1	0.706	0.579
NC1(C(=O)N[C@@H](CCO)c2ccc(Cl)cc2)CCN(c2ncnc3[nH]ccc23)CC1 [Capivasertib] + CC(=O)c1c(C)c2cnc(Nc3ccc(N4CCNCC4)cn3)nc2n(C2CCCC2)c1=O [Palbociclib] (first compound max 10 µM, 7x7, partner max 10 µM)	0.428	0.527	0.476	0.665	0.33	0.303	0.861	0.205	0.376	0.691	0.512	0.548	0.987	0.182	0.578	0.499	0.615	1	0.48	0.402
CC(=O)c1c(C)c2cnc(Nc3ccc(N4CCNCC4)cn3)nc2n(C2CCCC2)c1=O [Palbociclib] + Cc1c2c(nn1C)CSCc1cc(n(C)n1)CSc1cc(c3ccccc3c1)OCCCc1c(C(=O)O)n(C)c3c-2c(Cl)ccc13 [AZD5991] (first compound max 10 µM, 7x7, partner max 1 µM)	0.305	0.888	0.238	0.532	0.153	0.344	0.782	0.33	0.228	0.6	0.934	0.223	1	0.151	0.293	0.646	0.787	1	0.427	0.156
COc1cccc(OCCCN)c1-c1cc(Nc2cnc(C#N)cn2)n[nH]1 [Prexasertib] + CCc1c2c(nc3ccc(O)cc13)-c1cc3c(c(=O)n1C2)COC(=O)[C@]3(O)CC [SN-38] (first compound max 1 µM, 7x7, partner max 0.3 µM)	0.898	0.998	0.836	0.993	0.894	0.836	0.883	0.932	0.767	0.787	0.948	0.827	0.972	0.966	1	0.988	0.953	1	0.972	0.695
Cn1cnc2c(F)c(Nc3ccc(Br)cc3Cl)c(C(=O)NOCCO)cc21 [Selumetinib] + C=CCn1c(=O)c2cnc(Nc3ccc(N4CCN(C)CC4)cc3)nc2n1-c1cccc(C(C)(C)O)n1 [AZD1775] (first compound max 10 µM, partner max 1 µM)	0.275	0.521	0.321	0.712	0.157	0.189	0.956	0.931	0.316	0.514	0.915	0.513	0.834	0.42	0.972	0.35	0.798	0.98	0.57	0.641
Cc1c2c(nn1C)CSCc1cc(n(C)n1)CSc1cc(c3ccccc3c1)OCCCc1c(C(=O)O)n(C)c3c-2c(Cl)ccc13 [AZD5991] + Cc1cc2ncnn2cc1Nc1ncc2c(n1)n(C1CCOCC1)c(=O)n2C [AZD7648] (first compound max 1 µM, 7x7, partner max 10 µM)	0.887	0.963	0.264	0.251	0.18	0.249	0.426	0.198	0.389	0.369	0.934	0.502	1	0.219	0.41	0.263	0.881	1	0.427	0.285
